Measurements from patent publication US4020111A, “Propynyloxy alkyl arene insecticides” (priority 1975, dated 1977).

Columns and labels:
[1] = tested on: polyvalent resistant (CH strain) houseflies; experiment: whole plant or invertebrate; type: in vivo, housefly (CH strain); settings: CH strain
mice [2] = experiment: extension of Noludar sleeping time by synergists; type: in vivo, Swiss albino white male mice; settings: Noludar 110 mg/K, synergist 110 mg/K; for Relative Sleeping Time: treated/control
In short: (§1)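 Swiss albino male mice (~38 days, 25-30 g) given synergist at 74.0 or 110.0 mg/kg in corn oil 1 h before Secobarbital 37.0 mg/kg or Noludar 110.0 mg/kg in water. Sleeping time measured from drug dosing to righting-reflex recovery; relative sleeping time = treated ÷ drug-only control.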

[3] = tested on: IN/WHO strain house flies; experiment: topical application test, percent kill after 24 hours, IN/WHO strain; type: in vivo, house fly (susceptible IN/WHO strain)
In short: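 Susceptible female IN/WHO house flies, 3–5 days old, CO2-anesthetized, received synergist plus insecticide in acetone (1.0 μL) on the thorax; doses in μg/fly. Flies held 10 per dish, 3–5 dishes/treatment, with skim milk; mortality (percent kill) read at 24 h.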

mice [4] = experiment: extension of Secobarbital sleeping time by synergists; type: in vivo, Swiss albino white male mice; settings: Secobarbital 37 mg/K; for Relative Sleeping Time: treated/control
In short: as §1

[5] = GS 13005 1 + synergist 2 μg/fly
[6] = Pyrethrum 2 + synergist 4 μg/fly
[7] = Dimetilan 2 + synergist 4 μg/fly
[8] = GS 13798 1 + synergist 2 μg/fly
[9] = Mobam 0.10 + synergist 0.50 μg/fly
[10] = Diazinon 5 + synergist 10 μg/fly
[11] = Mobam 0.50 μg/fly, synergist/insecticide 5/1
[12] = Mobam 1.0 μg/fly, synergist/insecticide 1/1
[13] = Mobam 1.0 μg/fly, synergist/insecticide 2/1
[14] = Mobam 1.0 μg/fly, synergist/insecticide 5/1
[15] = Mobam 0.20 + synergist 1 μg/fly
[16] = Diazinon 0.03 + synergist 0.15 μg/fly
[17] = Mobam 0.05 + synergist 0.25 μg/fly

SMILES | percent kill after 24 hours [1, 5] | percent kill after 24 hours [1, 6] | Mean Sleeping Time (mice [2]) | Relative Sleeping Time (mice [2]) | Mean Sleeping Time (mice [4]; synergist 74 mg/K) | Relative Sleeping Time (mice [4]; synergist 74 mg/K) | Mean Sleeping Time (mice [4]; synergist 110 mg/K) | Relative Sleeping Time (mice [4]; synergist 110 mg/K) | percent kill after 24 hours [1, 7] | percent kill after 24 hours [1, 8] | percent kill after 24 hours [3, 9] | percent kill after 24 hours [1, 10] | percent kill after 24 hours [3, 15] | percent kill after 24 hours [3, 16] | further results
C#CCON=Cc1ccc(Cl)cc1Cl [I-G] | 100% | 47% | 48 min | 1.2 | 27 min | 1.0 | 55 min | 1.7 |  |  |  |  |  |  | percent kill after 24 hours ([3]; Diazinon 0.02 + synergist 0.10 μg/fly): 40%
C#CCON=C(C)c1ccc(Cl)cc1 [I-D] | 100% | 67% | 58 min | 1.5 | 62 min | 1.9 | 56 min | 1.7 | 100% | 100% | 20% |  |  |  | 
C#CCOCc1c(Cl)ccc(Cl)c1Cl [II-E] | 100% | 78% | 45 min | 1.1 |  |  | 44 min | 1.4 | 100% | 100% | 33% | 65% | 100% |  | percent mortality 24 hours [3, 11]: 100%; percent mortality 24 hours ([3]; Mobam 1.0 μg/fly, synergist/insecticide 0.5/1): 100%; percent mortality 24 hours [3, 12]: 100%; percent mortality 24 hours [3, 13]: 100%; percent mortality 24 hours [3, 14]: 100%; percent kill after 24 hours ([3]; synergist alone 1 μg/fly): 0%
C#CCOCc1ccc(Cl)c(Cl)c1Cl [II-D] | 95% | 30% | 46 min | 1.0 |  |  | 60 min | 1.2 | 100% | 100% |  | 60% | 100% | 40% | percent mortality 24 hours ([3]; Mobam 0.13 μg/fly, synergist/insecticide 1/1): 17%; percent mortality 24 hours ([3]; Mobam 0.25 μg/fly, synergist/insecticide 0.5/1): 30%; percent mortality 24 hours ([3]; Mobam 0.50 μg/fly, synergist/insecticide 1/1): 100%; percent mortality 24 hours [3, 11]: 100%; percent mortality 24 hours [3, 12]: 100%; percent mortality 24 hours [3, 13]: 100%; percent mortality 24 hours [3, 14]: 100%; percent kill after 24 hours [3, 17]: 10%
C#CCOCc1c(Cl)cccc1[N+](=O)[O-] [II-K] |  |  | 75 min | 2.4 | 48 min | 1.5 | 44 min | 2 |  |  |  |  |  |  | 24 hour percent mortality ([3]; Bidrin 0.063 μg/fly with five parts synergist): 0%; 24 hour percent mortality ([3]; Pyrolan 0.13 μg/fly with five parts synergist): 40%
C#CCON=C(C)c1ccc2ccccc2c1 [I-F] | 100% | 35% | 55 min | 1.4 | 32 min | 1.1 | 70 min | 2.2 | 100% | 95% |  |  | 47% | 24% | percent kill after 24 hours ([3]; GS 13005 0.10 + synergist 0.50 μg/fly): 45%
C#CCOCc1ccc(Cl)c(Cl)c1 [II-C] | 75% | 50% | 50 min | 1.3 |  |  | 33 min | 1.0 | 100% | 92% | 27% | 95% |  | 25% | percent kill after 24 hours [3, 17]: 4%
